Results reported in US20050202078A1, “Vesicle-encapsulated corticosteroids for the treatment of cancer” (priority 2002, published 2005).

Columns and labels:
[1] = system: B16 murine melanoma; test: Tumor growth inhibition, effect of dose, B16 model; type: in vivo, C57B1/6 mice; conditions: 20 mg/kg or 50 mg/kg, single injection; one week later
Method: (§1) FIG. 2: Effect of dose of free or liposomal PLP on tumor growth in B16- or C26-bearing mice. Mice received a single injection with the indicated dose and formulation of PLP on the day tumors became palpable. Tumor volume one week later is reported. Mean±S.D. N=5 mice/experimental group;
(§2) B16 murine melanoma and C26 murine colon carcinoma cells were cultured at 37° C. in a 5% CO2-containing humidified atmosphere in DMEM medium (Gibco, Breda, The Netherlands) containing 10% (v/v) fetal calf serum supplemented with 2 mM L-glutamine, 100 IU/ml penicillin, 100 μg/ml streptomycin and 0.25 μg/ml amphotericin B (Gibco).
(§3) Tissue distribution of ^111In-labeled PEG liposomes in tumor-bearing mice. 1×10^5 B 16 or C26 cells were inoculated subcutaneously in the flank of C57B1/6 of Balb/c mice, respectively. […] At 6 hours and 24 hours after injection, animals were sacrificed, a blood sample was taken, and tumor, lung, liver, spleen and kidneys were dissected, weighed and radioactivity was counted. […]
(§4) Mice received a single intravenous injection of an indicated dose of free PLP or liposomal PLP at the time when the tumor became palpable. At seven days after treatment, tumor size was measured and tumor volume calculated according to the equation V=0.52×a^2×b, wherein a is the smallest and b is the largest superficial diameter.

[2] = system: C26 murine colon carcinoma; test: Tumor growth inhibition, effect of dose, C26 model; type: in vivo, Balb/c mice; conditions: 20 mg/kg or 50 mg/kg, single injection; one week later
Method: as §1, §2, §3, §4

[3] = system: B16 murine melanoma; test: Tumor growth inhibition, effect of tumor size (time of injection), B16 model; type: in vivo, C57B1/6 mice
Method: (§5) FIG. 3: Effect of tumor size on anti-tumor effects of free or liposomal PLP in B16- or C26-bearing mice. Mice received either single or multiple injections with 20 mg/kg PLP of the indicated formulations. Arrows indicate treatment. Mean±S.D. is reported. N=5 mice/experimental group; and
as §2
(§6) As a reference, B16F10 tumors became palpable around seven days and C26 tumors around eleven days after tumor cell inoculation. Tumor size was measured regularly and tumor volume was calculated as described above.
(§7) To determine the effect of time of injection of free or liposomal PLP on tumor growth inhibition, the formulations were injected at a dose of 20 mg/kg at day 1, 7 and 14 or single injection at day 7 or day 14. See, in this light, FIG. 3 showing the results.

[4] = system: C26 murine colon carcinoma; test: Tumor growth inhibition, effect of tumor size (time of injection), C26 model; type: in vivo, Balb/c mice
Method: as §5, §2, §6, §7

[5] = single injection 20 mg/kg at day 7

**Q.** “prednisolone disodium phosphate [free PLP]” was tested. Which “tumor volume compared to buffer-treated control animals” value [1] did it give?
**A.** The value was “did not result in significantly different tumor volumes”.

**Q.** What about the “tumor volume compared to buffer-treated control animals” value [2] of the same substance?
**A.** The value was “did not result in significantly different tumor volumes”.

**Q.** What about the “tumor growth inhibition between day 1 and day 7” value ([3]; 20 mg/kg i.v. at day 1) of the same substance?
**A.** The value was “Neither liposomal PLP nor free PLP inhibited tumor growth”.

**Q.** What about the “tumor growth inhibition as compared to controls, between day 7 and day 14” value ([3]; 20 mg/kg i.v. at day 1 and second injection at day 7, p<0.05) of the same substance?
**A.** The value was “did not reduce tumor volume”.

**Q.** What about the “significantly smaller tumor volume after single injection” value [3, 5] of the same substance?
**A.** Its value is “only seen after treatment with liposomal PLP”.

**Q.** And the “tumor growth inhibition between day 1 and day 7” value ([4]; 20 mg/kg i.v. at day 1)?
**A.** The value was “Neither liposomal PLP nor free PLP inhibited tumor growth”.

**Q.** And the “tumor growth inhibition, multiple injections” value ([4]; 20 mg/kg i.v. at day 1, 7 and 14)?
**A.** The value was “did not inhibit tumor growth”.

**Q.** And the “significance of tumor volume compared to controls” value [4, 5]?
**A.** Its value is “not significantly smaller with either treatment”.
